The test system of assay [1] is Candida albicans TIMM1768. As to the kind of experiment: In vitro screening of material performing synergistic effect (10 min contact, crystal violet staining, absorbance 620 nm). Conditions: for synergistic effect by the combined use with a protamine hydrolysate: combined with protamine hydrolysate 0.125 or 2.0 mg/mL; for antibacterial activity in single use (relative absorbance, blank = 1): 0.008-1 mg/mL. It is filed as cell-based. From the text: Candida albicans TIMM1768
Hinokitiol (manufactured by Kiseitech Co., Ltd.), terpinen-4-ol (manufactured by Tokyo Chemical Industry, Co., Ltd.), geraniol (manufactured by Kanto Chemical Co., Inc.), menthol (manufactured by Wako Pure Chemical Industries, Ltd.), cinnamaldehyde (manufactured by Wako Pure Chemical Industries, Ltd.) and capric acid (manufactured by Wako Pure Chemical Industries, Ltd.) were individually dissolved in RPMI medium so that the concentration in a test material was 0.008, 0.04, 0.2, 1 mg/mL, and the protamine hydrolysate prepared according to Example 1 was dissolved so that the concentration of the protamine hydrolysate in a test material was 0, 0.125, 2.0 mg/mL, and the solutions were subjected to the test. Further, 0.002, 0.008, 0.031, 0.125, 0.5, 2, 8, 32 mg/mL solutions using the protamine hydrolysate singly were subjected to the test. Evaluation method
C. albicans TIMM1768 strain was added to a 96 well microplate each in an amount of 200 μL so that 2.5×10^5 cells/well, and cultured for 2.5 to 3.5 hours at 37° C. under 5% CO2. After cultivation, each medium was removed under suction, and each test material was added in an amount of 200 μL/well. After allowing to stand still at 37° C. for 10 minutes, each sample solution was removed under suction, and RPMI medium was added in an amount of 200 μL/well, and cultured for 2.5 hours at 37° C. under 5% CO2. After cultivation, each sample was stained with crystal violet and the absorbance at 620 nm was measured. The antibacterial activity was expressed in terms of the relative value of each experimental section when the blank absorbance was 1.
The results of in vitro evaluation when using a protamine hydrolysate and terpene alcohols in combination are shown in FIGS. 1 to 6, and the result of in vitro evaluation when using a protamine hydrolysate singly is shown in FIG. 7. In FIGS. 1 to 6, ♦ represents the result of single use of terpene alcohols, ▪ represents the result of the combined use with a protamine hydrolysate 0.125 mg/ml, and ▴ represents the result of the combined use with a protamine hydrolysate 2.0 mg/ml, respectively.

Assay [2] concerns Candida albicans TIMM1768. As to the kind of experiment: In vitro combined use of protamine hydrolysate and Hinokitiol (16 h culture, crystal violet), IC90 and FIC index. To be noted: TIMM1768, Pro 0, none printed in the table, read-out: IC90 of hinokitiol alone. It is filed as cell-based.
Description: FIC index=A1/A0+B1/B0 (1) • A0: MIC when agent A is used alone • A1: MIC of agent A when agent A and agent B are used in combination • B0: MIC when agent B is used alone • B1: MIC of agent B when agent A and agent B are used in combination Evaluation of synergistic effect by FIC index • FIC≦0.5: synergistic effect • 0.5<FIC≦1.0: additive effect • 1.0<FIC≦2.0: no relation • 2.0<FIC: antagonistic effect
Hinokitiol (manufactured by Kiseitech Co., Ltd.) was dissolved in RPMI medium so that the concentration in each test material was 0, 0.004, 0.008, 0.016, 0.031, 0.063, 0.125, 0.25, 0.5, or 1 μg/mL, and the protamine hydrolysate prepared according to Example 1 was dissolved so that the concentration of the protamine hydrolysate in each test material was 0, 0.156, 0.313, 0.625, 1.25, 2.5, 5, or 10 μg/mL, and they were subjected to the test.
C. albicans TIMM1768 strain was diluted with RPMI medium so that 5.0×10^3 cells/m L, then, added to a 96 well microplate each in an amount of 100 μL. The protamine hydrolysate solution was added each in an amount of 50 μL/well, then, Hinokitiol was added each in an amount of 50 μL/well. After cultivation for 16 hours at 37° C. under 5% CO2, each sample was stained with crystal violet and the absorbance at 620 nm was measured.

On to `O=CC=Cc1ccccc1` [Cinnamaldehyde, cinnamaldehyde, reference compound], for which, in assay [1], the “synergistic effect by the combined use with a protamine hydrolysate” value (shortened to “synergistic effect by the combined use”) is given as “the synergistic effect by the combined use with a protamine hydrolysate was not recognized” and the “antibacterial activity in single use (relative absorbance, blank = 1)” value is listed as “little antibacterial activity”.

Turning to `CC(C)c1cccc(=O)c(O)c1` [Hinokitiol], in assay [1], the “synergistic effect by the combined use” value is “a synergistic effect of improving activity by the combined use with a protamine hydrolysate was recognized” and the “antibacterial activity in single use (relative absorbance, blank = 1)” value is recorded as “showed an antibacterial activity even in the single use”. In addition, the IC90 in assay [2] was 0.77 µg/mL.

In the case of `CCCCCCCCCC(=O)O` [capric acid, reference compound], in assay [1], the “synergistic effect by the combined use” value is “the synergistic effect by the combined use with a protamine hydrolysate was not recognized” and the “antibacterial activity in single use (relative absorbance, blank = 1)” value is “little antibacterial activity”.

`CC(C)=CCC/C(C)=C/CO` [geraniol]: in assay [1], the “synergistic effect by the combined use” value is “the activity was slightly improved by the combined use with a protamine hydrolysate” and the “antibacterial activity in single use (relative absorbance, blank = 1)” value was “low activity”.

Consider `CC1CCC(C(C)C)C(O)C1` (stereo not shown) [menthol], for which, in assay [1], the “synergistic effect by the combined use” value is given as “the activity was slightly improved by the combined use with a protamine hydrolysate” and the “antibacterial activity in single use (relative absorbance, blank = 1)” value is on record as “low activity”.

Consider `CC1=CCC(O)(C(C)C)CC1` (stereo not shown) [terpinen-4-ol], for which, in assay [1], the “synergistic effect by the combined use” value is recorded as “the activity was slightly improved by the combined use with a protamine hydrolysate” and the “antibacterial activity in single use (relative absorbance, blank = 1)” value was “low activity”.

The IC90 is the point of the concentration-response curve where the effect stands at 90%.

These data come from US20170354177A1, “ANTIFUNGAL COMPOSITION COMPRISING ANTIFUNGAL PEPTIDE AND TERPENE ALCOHOL” (MARUHA NICHIRO CORPORATION, priority 2014, published 2017).
